Data set [1] can be described thus: ABTS radical scavenging assay. Type of data set: biochemical. The note with it: for IC50: 30 min incubation, EtOH, absorbance at 734 nm; for ABTS-TEAC100: Trolox Equivalent Antioxidant Capacity vs 100 µM solution of the substance, from ABTS assay. Here is the method:
ABTS^+ radical was produced by reacting 2,2′-azino-bis-3-ethylbenzthiazoline-6-sulphonic acid (ABTS) 7 mM with K2S2O8 2.45 mM, both reactants dissolved in water, and at the volume ratio of 1:1. The mixture was stored in the dark at room temperature for 16 h. The ABTS^+ solution was diluted to give an absorbance of 0.750 ± 0.025 at 734 nm in EtOH. All the compounds tested were dissolved in EtOH. 150 µL of each compound solution was added to the wells of the 96-well plate, followed by the addition of 50 µL of the ABTS^+ radical solution. Final compound concentrations tested were 0, 5, 10, 20, 50, 100, 150, 200 µM. The absorbance change at 734 nm was recorded after 30 min incubation in the dark, and the percentage of radical scavenging was calculated for each concentration relative to a blank containing no scavenger. The degree of decolorization was calculated as the percentage reduction of absorbance. The ABTS^+ radical scavenging activity was calculated as follows: Percentage ABTS^+ radical scavenging activity = {1 − [As/Ac]} × 100(1) where As is the absorbance of the ABTS^+ radical solution containing samples and Ac the absorbance of the control solution without antioxidant. The percentages of ABTS^+ radical reduced were plotted against compound concentration. Trolox was used as a reference antioxidant. All the assays were carried out three times by quadruplicate for each compound.

Data set [2] is described as follows: DPPH radical scavenging assay. Type of data set: biochemical. As to conditions: antioxidant concentration that decreases initial DPPH^• concentration by 50%; 30 min, 517 nm. Here is the method:
The assay was performed in a 96-well microplate. A 0.2 mM solution of 2,2-diphenyl-1-picryl-hydrazyl-hydrate (DPPH) in ethanol was prepared. All the compounds tested were dissolved in EtOH. Firstly, 150 µL of each compound solution was added to the wells of the 96-well plate, followed by the addition of 50 µL of the DPPH solution. Final compound concentrations tested were 0, 5, 10, 20, 50, 100, 150, 200 µM. The change in absorbance at 517 nm was measured after 30 min incubation in the dark. The free radical scavenging activity was calculated as inhibition using the following Equation (2): Percentage DPPH radical scavenging activity = {1 − [As/Ac]} × 100(2) where As is the absorbance of the DPPH solution containing samples and Ac the absorbance of the control solution without antioxidant but with DPPH. The percentages of DPPH reduced were plotted against compound concentration. The experiment was also conducted using Trolox as reference antioxidant. Assays were performed three times by quadruplicate for each compound.
On the technique in general: The DPPH test is a chemical assay of radical scavenging.

Data set [3] in a line: Cytotoxicity in SH-SY5Y cells (MTT). Type of data set: cell-based. The note with it: human, SH-SY5Y neuronal cells, concentration reducing cell viability to 50% of control. Here is the method:
So, to study the neuroprotectant potential of β-diketones in the SH-SY5Y cell line, we firstly need to determine their cytotoxicity in the same cellular model. […] In addition to that, within each series, the introduction of a second fluorine atom in the left-hand side phenyl ring decreases also the cytotoxicity.
SH-SY5Y cells were seeded into 96-well plates at a density of 5 × 10^3 cells/well and grown in the incubator for 24 h. All compounds tested were dissolved and eventually further diluted in dimethylsulfoxide (DMSO). After overnight incubation, the cells were treated with different test concentrations (5, 10, 20, 50, 100, 150, 200 µM) in a final volume of 200 µL with four replicates each. […] Cell proliferation or viability was measured using the 3-(4,5-dimethylthiazol-2-yl)-2,5-diphenyl tetrazolium bromide (MTT) assay. After 24 h, 20 µL of MTT (5 mg/mL) was added to each well and the plate was incubated at 37 °C in the dark for 2 h. Supernatants were removed and the formazan crystals were solubilized in DMSO (200 µL/well), under 10 min shaking at room temperature. The reduction of MTT was quantified by absorbance at 570 nm Varioskan microplate reader (Thermo Fisher Scientific, Vantaa, Finland). Effects of the test compounds on cell viability were calculated using cells treated with vehicle as control. The data were subjected to linear regression analysis and the regression lines were plotted for the best fit. The IC50 (inhibition of cell viability) concentrations were calculated using the respective dose-response curves.

A short description of data set [4]: FRAP (Ferric Reducing Antioxidant Power) assay. Type of data set: biochemical. As to conditions: for FRAP-TEAC100: Trolox Equivalent Antioxidant Capacity vs 100 µM solution of the substance, from FRAP assay; for FRAP Assay (%) at 100 µM / FRAP Assay (%) at 200 µM: 30 min, 593 nm. Here is the method:
The assay was carried out according to the method of Benzie et al. with slight modifications, in a 96-well microplate. FRAP reagent was prepared by mixing 10 mL of 300 mM acetate buffer with 1 mL of 10 mM 2,4,6-tripyridyl-S-triazine (TPTZ) in HCl 40 mM and 1mL of FeCl3·6H2O 20 mM. Firstly, 190 µL of the FRAP reagent were added to all wells of the 96-well plate, followed by the addition to the well of 10 µL of the test compounds dissolved in Ethanol to reach the final concentrations assayed (0, 5, 10, 20, 50, 100, 150, 200 µM). After 30 min incubation in the dark, the absorbance was read at 593 nm. Trolox was used as assay control. Three different assays were carried out by quadruplicate for each compound.

For data set [5], the system named is SH-SY5Y cells. The experiment in a line: SH-SY5Y neuroprotection assay against H2O2 (MTT). Type of data set: cell-based, human. As to conditions: compound 5-50 µM for 24 h, then 200 µM H2O2 for 24 h. Here is the method: For neuroprotection experiments, SH-SY5Y cells were treated with test compound at different concentrations (5, 10, 20, 30, 40, and 50 µM) for 24 h. After the incubation period, cells were exposed to H2O2 200 µM for 24 h. At the end of the treatment, cell viability was measure with MTT.
Compound neuroprotection under H2O2-induced oxidative stress was assessed by MTT assay. Briefly, SH-SY5Y were seeded into 96-well plates at a density of 3 × 10^3 cells/well and grown in the incubator for 24 h. Cells were pretreated for 24 h with different compound concentrations (5, 10, 20, 30, 40, 50 µM). After the treatment period, cells were exposed to 200 µM H2O2 for 24 h. Cell viability was measured with MTT following the same procedure described above. Cell viability was expressed as the percentage of the control value (cells without treatment with H2O2).

Data set [6] in a line: Kinetic solubility by UV spectrometry in 10 mM PBS. Type of data set: physicochemical. The note with it: 10 mM phosphate buffered saline, aqueous buffer, kinetic from dmso stock. Here is the method: Among the most important physicochemical parameters in drug-discovery, solubility and chemical stability in aqueous media are the determinants for non-toxic and brain-permeable drug-like compounds with good bioavailability. So, compounds with good aqueous solubility are the best candidates for drug-discovery progression. […] The assays were performed at room temperature, in 10 mM Phosphate Buffered Saline (PBS) from compound stocks in DMSO at 20 mM concentration.
A modified protocol was used from that described by Hoelke et al. for the determination of the kinetic solubility from DMSO compound solutions. A compound calibration curve (compound concentration vs. UV absorption) was prepared on a 48 well plate for each compound with concentrations in the range of 10 µM to […]. Each compound dilution was carried out by pipetting defined volumes of a 20 mM stock compound solution in DMSO into the wells and adding PBS 10 mM to reach a final volume of 500 µL/well. The final amount of DMSO per well was 2%. For the lower compound concentrations, an additional volume of DMSO was added into each well to reach the 2% of DMSO. Then, 200 µL of each dilution was transferred to a new 96 well plate for the measurement of the UV-spectra. One well in each row was left without compound as a blank and its UV absorbance was used as an offset correction. The experiments were carried out by duplicate.
(§1) In parallel compound saturation solutions were obtained and filtered from 20 mM compound stock in DMSO. So, 10 µL of 20 mM stock solution were dispensed to 190 µL of PBS 10 mM. The solutions were mixed, shaken in a microplate shaker for two hours, and then 160 µL of each solution were filtered and transferred to a new well plate for UV absorption measure. The compound stability in PBS 10 mM was determined at 24, 48 and 72 h with solutions prepared as those for the compound calibration curve.
Measurement of the UV-spectra was performed using a Varioskan microplate reader and spectra were taken in the range of 270–600 nm. Spectral bandwidth was set to 5 nm and the data pint interval was 10 nm. […]

The nature of data set [7]: Chemical stability in 10 mM PBS. Type of data set: physicochemical. As to conditions: 6b, 7b at 400 µM, curcumin at 50 µM. Here is the method:
It is also important to know compound integrity at those concentrations used in biological assays, and for that, the chemical stability was determined in 10 mM PBS after 6 h, 24 h and 48 h.
as §1

Structures are written as SMILES. Values after ≈ are worked out from the molar mass of the structure shown.

With `COc1cc(/C=C/C(O)=C/C(=O)c2ccccc2)ccc1O` [Compound 1a, (2Z,4E)-3-Hydroxy-5-(4-hydroxy-3-methoxyphenyl)-1-phenylpenta-2,4-dien-1-one], the melting point – broadly, the temperature of the solid-liquid transition – was determined as 159.9 °C. In addition, in data set [1], the concentration for half-maximal inhibition (IC50) (in general, the concentration needed to halve the response being measured) came out at 50.5 ± 2 µM and the ABTS-TEAC100 was 0.88. Further, the IC50 in data set [2] was found to be 42.3 ± 3.4 µM. In data set [3], this compound had an IC50 at 24 h of 104 ± 6.7 µM. In addition, in data set [4], the FRAP-TEAC100 is 0.59, the “FRAP Assay (%) at 100 µM” value came out at 32.2% and the “FRAP Assay (%) at 200 µM” value came to 55.7%.

`O=C(/C=C(O)/C=C/c1ccc(O)c(F)c1F)c1ccccc1` [Compound 7a, (2Z,4E)-5-(2,3-Difluoro-4-hydroxyphenyl)-3-hydroxy-1-phenylpenta-2,4-dien-1-one]: the melting point is 179.3 °C. In addition, in data set [1], the half-maximal inhibitory concentration (IC50) was 79.6 ± 4.3 µM and the ABTS-TEAC100 is given as 0.69. The compound further yielded an IC50 at 24 h in data set [3] of 126 ± 8 µM. Besides, in data set [4], the FRAP-TEAC100 was 0.22, the “FRAP Assay (%) at 100 µM” value is on record as 14.0% and the “FRAP Assay (%) at 200 µM” value is 20.7%.

`COc1cc(/C=C/C(=O)CC(=O)/C=C/c2ccc(O)c(OC)c2)ccc1O` [Curcumin, reference compound]: the IC50 at 24 h in data set [3] is 48.8 ± 5.1 µM. In data set [5], the “Cell viability after H2O2 (neuroprotection)” value was “slight protection”. For the same compound, the solubility (commonly how much of the substance goes into solution per volume) at 2 h in data set [6] came to 24 ± 3 µg/mL (≈ 65.1 µM). Further, the “Remaining Compound (%) 0 h” value in data set [7] (0 h) was found to be 100%. Also, the “Remaining Compound (%) 6 h” value in data set [7] (6 h) was found to be 55.9 ± 10.6%. Further, the “Remaining Compound (%) 24 h” value in data set [7] (24 h) worked out at 42.9 ± 9.0%. The “Remaining Compound (%) 48 h” value in data set [7] (48 h) was 38.1 ± 7.4%.

Values taken from article PMC6222706, “Evaluation of the Antioxidant and Neuroprotectant Activities of New Asymmetrical 1,3-Diketones” (Molecules : A Journal of Synthetic Chemistry and Natural …, 2018).
